Assay results reported in article PMC6204527, “The Human Gut Colonizer Blastocystis Respires Using Complex II and Alternative Oxidase to Buffer Transient Oxygen Fluctuations in the Gut” (Frontiers in Cellular and Infection Microbiology, 2018).

Assays:
[1] = biological target: T1, Blastocystis alternative oxidase (AOX) (Blastocystis hominis, UniProt D3GDI7); test: O2 uptake, Clark electrode, E. coli FN102 membranes; assay type: biochemical; conditions: 1 mM duroquinol; O2 co-substrate (250 μM); 50 mM Tris-HCl pH 7.5; 25 °C
T1 construct: full-length 304 aa (predicted 35 kDa), N-terminal 6xHis from pET-14b, expressed in heme-deficient E. coli FN102; E. coli membranes or whole cells
T1 sequence (D3GDI7 1-304): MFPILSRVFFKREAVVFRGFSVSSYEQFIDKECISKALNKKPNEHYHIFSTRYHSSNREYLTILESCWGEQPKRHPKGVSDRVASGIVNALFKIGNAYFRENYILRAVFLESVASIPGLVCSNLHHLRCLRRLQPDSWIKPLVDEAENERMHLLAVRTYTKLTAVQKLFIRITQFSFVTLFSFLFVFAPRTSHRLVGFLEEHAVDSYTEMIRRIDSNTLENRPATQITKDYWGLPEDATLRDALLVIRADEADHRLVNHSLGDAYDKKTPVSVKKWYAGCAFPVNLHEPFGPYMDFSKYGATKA

[2] = biological target: T1, Blastocystis alternative oxidase (AOX); test: as above; assay type: biochemical; conditions: 1 mM duroquinol; 50 mM Tris-HCl pH 7.5; 25 °C; antimycin A 1 μM also added

Cc1c(C)c(O)c(C)c(C)c1O [DQH2, duroquinol]
O2 uptake, Clark electrode, E. coli FN102 membranes [1]: Addition of duroquinol (Sigma), an AOX substrate, initiates oxygen consumption

CCCCCCCCOC(=O)c1cc(O)c(O)c(O)c1 [OG, octylgallate]
inhibition at 25 μM [2]: Oxygen consumption is almost completely abated by the addition of octylgallate, an AOX inhibitor
